Laboratory results taken from patent US20190119282A1, “IMIDAZOPYRIDAZINES USEFUL AS INHIBITORS OF THE PAR-2 SIGNALING PATHWAY” (Vertex Pharmaceuticals Incorporated, priority 2013, published 2019).

Experiments:
[1] = test system: Thrombin-stimulated Ca2+ response in HT-29 cells; assay: Ca FLIPR TETRA assay, ANTAGONIST mode, stimulation with 1 U/mL Thrombin; format: cell-based, human; conditions: Homo sapiens, HT-29 cells, stimulation with 1 U/mL Thrombin
Procedure, shortened: (§1)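 Antagonist-mode FLIPR Tetra Ca2+ readout: after 30 min r.t. compound pre-incubation, HT-29 cells are challenged with trypsin (3.1 U/mL final), SLIGKV (8 μM), thrombin (1 U/mL) or UTP (0.6 μM). Cells were plated overnight in 1% FBS medium and dye-loaded with Calcium 5; an initial read checks compound agonism.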

[2] = target: T1, PAR2 (HT-29 cells, trypsin activation) (Homo sapiens, UniProt P55085); assay: Ca FLIPR TETRA assay, ANTAGONIST mode, stimulation with 3.1 U/mL trypsin; format: cell-based; conditions: HT-29 cells, stimulation with 3.1 U/mL trypsin
T1 construct: host or cells: HT-29 cells
T1 sequence (P55085 26-397): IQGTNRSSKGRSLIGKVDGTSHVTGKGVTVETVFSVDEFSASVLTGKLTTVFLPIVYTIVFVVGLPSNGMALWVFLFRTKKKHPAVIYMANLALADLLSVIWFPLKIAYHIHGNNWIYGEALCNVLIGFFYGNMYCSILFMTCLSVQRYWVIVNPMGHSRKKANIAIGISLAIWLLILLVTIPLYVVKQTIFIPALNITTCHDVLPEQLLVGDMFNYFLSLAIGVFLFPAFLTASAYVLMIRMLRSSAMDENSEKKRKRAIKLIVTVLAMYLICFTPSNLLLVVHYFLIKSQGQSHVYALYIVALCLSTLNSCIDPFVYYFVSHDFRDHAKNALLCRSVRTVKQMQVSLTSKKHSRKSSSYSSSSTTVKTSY
Procedure, shortened: as §1

[3] = test system: UTP-stimulated Ca2+ response in HT-29 cells; assay: Ca FLIPR TETRA assay, ANTAGONIST mode, stimulation with 0.6 μM UTP; format: cell-based, human; conditions: Homo sapiens, HT-29 cells, stimulation with 0.6 μM UTP
Procedure, shortened: as §1

[4] = target: T2, PAR2 (HT-29 cells, SLIGKV activation) (Homo sapiens, UniProt P55085); assay: Ca FLIPR TETRA assay, ANTAGONIST mode, stimulation with 8 μM SLIGKV; format: cell-based; conditions: HT-29 cells, stimulation with 8 μM SLIGKV
T2 construct: host or cells: HT-29 cells
T2 sequence (P55085 26-397): T1 sequence (P55085 26-397)
Procedure, shortened: as §1

| SMILES | IC50 ([1]; antagonist mode) [nM] | IC50 ([2]; antagonist mode) [nM] | IC50 ([3]; antagonist mode) [nM] | IC50 ([4]; antagonist mode) [nM] | IC50 [1] [nM] | IC50 [2] [nM] | IC50 [3] [nM] | IC50 [4] [nM] |
| --- | --- | --- | --- | --- | --- | --- | --- | --- |
| CCc1cc(-c2ccc(F)cc2)nn2cc(C(=O)N3CCN(C(=O)OC(C)(C)C)CC3(C)C)nc12 [Compound I-4, tert-Butyl 4-[8-ethyl-6-(4-fluorophenyl)imidazo[1,2-b]pyridazine-2-carbonyl]-3,3-dimethyl-piperazine-1-carboxylate] | – | – | – | – | 12000 | 16 | 17000 | 3 |
| O=C(c1cn2nc(-c3ccc(F)cc3)cc(C(F)(F)F)c2n1)N1CCCCC1c1ccn[nH]1 (stereo not drawn) [Compound I-78] | – | – | – | – | 4100 | 1600 | 4500 | 510 |
| CC(C)c1cc(-c2ccc(F)c(Cl)c2)nn2cc(C(=O)N3CCNC(=O)C3(C)C)nc12 [Compound I-363] | > 1000 | 2.8 | > 1000 | 5.4 | – | – | – | – |
| Cc1cc(-c2ccc(F)cc2)nn2cc(C(=O)N3CCN(C(=O)[C@H](O)C(C)(C)C)[C@@H](C)C3)nc12 [Compound I-153] | – | – | – | – | 19000 | 1450 | 22000 | 250 |
| CC(C)c1cc(-c2ccc(F)cc2)nn2cc(C(=O)N3CCN(C(=O)CCN4CCCCC4=O)[C@@H](C)C3)nc12 [Compound I-137] | – | – | – | – | 43000 | 240 | 40000 | 42 |
| Cc1cc(C(=O)N2CCN(C(=O)c3cn4nc(-c5ccc(F)c(C)c5)cc(C(C)C)c4n3)C(C)(C)C2)[nH]n1 [Compound I-341] | > 1000 | 1.7 | > 1000 | 2.1 | – | – | – | – |
| CC(C)(C)c1cc(-c2ccc(F)cc2)nn2cc(C(=O)N3CCN(c4nn[nH]n4)C(=O)C3(C)C)nc12 [Compound I-235] | > 1000 | 1.1 | 930 | 0.7 | – | – | – | – |
| CC(C)(C)c1cc(-c2ccc(F)cc2)nn2cc(C(=O)N3CCN(C(=O)c4ncc[nH]4)CC3(C)C)nc12 [Compound I-229] | > 1000 | 0.8 | > 1000 | 0.5 | – | – | – | – |
| CC(C)(C)c1cc(-c2ccc(F)cc2)nn2cc(C(=O)N3CCN(C(=O)c4ccn[nH]c4=O)CC3(C)C)nc12 [Compound I-356] | > 1000 | 15 | > 1000 | 28 | – | – | – | – |
| COC(=O)[C@@H]1C[C@@H](C)CN(C(=O)c2cn3nc(-c4ccc(F)cc4)cc(C(F)(F)F)c3n2)C1 [Compound I-49] | – | – | – | – | 5200 | 1500 | 6000 | 530 |
| CC(C)C(O)C(=O)N1CCN(C(=O)c2cn3nc(-c4ccc(F)cc4)cc(C(F)(F)F)c3n2)C[C@@H]1C (stereo partly drawn) [Compound I-91] | – | – | – | – | 26000 | 1500 | 20000 | 69 |
| CC(C)c1cc(-c2ccc(F)c(F)c2)nn2cc(C(=O)N3CCN(C(=O)c4ccn[nH]4)CC3(C)C)nc12 [Compound I-258] | > 1000 | 1.9 | > 1000 | 1.7 | – | – | – | – |
| CC(C)c1cc(-c2ccc(F)c(F)c2)nn2cc(C(=O)N3CCN(C(=O)[C@H]4C[C@@](O)(C(F)(F)F)C4)CC3(C)C)nc12 [Compound I-264] | > 1000 | 5.2 | > 1000 | 3.1 | – | – | – | – |
| CC(C)c1cc(-c2ccc(C(F)(F)F)cc2)nn2cc(C(=O)N3CCN(C(=O)C4CC(C)(O)C4)CC3(C)C)nc12 (stereo not drawn) [Compound I-371] | > 1000 | 1.6 | > 1000 | 1.3 | – | – | – | – |
| CC(C)c1cc(-c2ccc(F)cc2)nn2cc(C(=O)N3CCC4(CC3)CNC(=O)O4)nc12 [Compound I-24, 8-[6-(4-fluorophenyl)-8-isopropyl-imidazo[1,2-b]pyridazine-2-carbonyl]-1-oxa-3,8-diazaspiro[4.5]decan-2-one] | – | – | – | – | > 50000 | 590 | > 50000 | 220 |
| CC(C)(C)C[C@@H](O)C(=O)N1CCN(C(=O)c2cn3nc(-c4ccc(F)cc4)cc(C(F)(F)F)c3n2)CC1 [Compound I-52] | – | – | – | – | 47000 | 350 | 16000 | 140 |
| CCc1cc(-c2ccc(F)cc2)nn2cc(C(=O)N3CCN(C(=O)[C@H](O)C(C)C)CC3(C)C)nc12 [Compound I-166] | – | – | – | – | 23000 | 53 | 27000 | 16 |
| CCc1cc(-c2ccc(F)cc2)nn2cc(C(=O)N3CCN(C(=O)C4(O)CCC4)CC3(C)C)nc12 [Compound I-162] | – | – | – | – | 35000 | 160 | 35000 | 110 |
| Cc1nnc(C(=O)N2CCN(C(=O)c3cn4nc(-c5ccc(C)c(F)c5)cc(C(C)C)c4n3)C(C)(C)C2)o1 [Compound I-337] | > 1000 | 4.5 | > 1000 | 5.4 | – | – | – | – |
| C[C@H]1CN(C(=O)c2cn3nc(-c4ccc(F)cc4)cc(C(C)(C)C)c3n2)C(C)(C)C(=O)N1 [Compound I-226] | > 1000 | 760 | > 1000 | 525 | – | – | – | – |
| CC1(C)CN(C(=O)C2CC(O)(C(F)(F)F)C2)CCN1C(=O)c1cn2nc(-c3ccc(F)cc3)cc(C3CCOCC3)c2n1 (stereo not drawn) [Compound I-204] | > 1000 | 93 | > 1000 | 42.5 | – | – | – | – |
| CC(C)c1cc(-c2ccc(C(F)(F)F)cc2)nn2cc(C(=O)N3CCN(C(=O)c4ncccn4)CC3(C)C)nc12 [Compound I-370] | > 1000 | 10.4 | > 1000 | 7.7 | – | – | – | – |
| CC(C)(C)c1cc(-c2ccc(F)cc2)nn2cc(C(=O)N3CCN(C(=O)c4ccncn4)CC3(C)C)nc12 [Compound I-231] | > 1000 | 1.6 | > 1000 | 1.1 | – | – | – | – |

Further lines, results first:

| IC50 ([1]; antagonist mode) [nM] | IC50 ([2]; antagonist mode) [nM] | IC50 ([3]; antagonist mode) [nM] | IC50 ([4]; antagonist mode) [nM] | IC50 [1] [nM] | IC50 [2] [nM] | IC50 [3] [nM] | IC50 [4] [nM] | SMILES |
| --- | --- | --- | --- | --- | --- | --- | --- | --- |
| > 1000 | 101 | > 1000 | 55.3 | – | – | – | – | CC(C)c1cc(-c2ccc(F)c(Cl)c2)nn2cc(C(=O)N3CCN(C(=O)[C@H]4CC[C@H](C(=O)O)CC4)CC3(C)C)nc12 [Compound I-496] |
| 6900 | 4.3 | 6800 | 2.5 | – | – | – | – | Cc1nc(C(=O)N2CCN(C(=O)c3cn4nc(-c5ccc(F)c(Cl)c5)cc(C(C)C)c4n3)C(C)(C)C2)n[nH]1 [Compound I-483] |
| > 1000 | 2.7 | > 1000 | 1.8 | – | – | – | – | CC(C)(C)c1cc(-c2ccc(C(F)(F)F)cc2)nn2cc(C(=O)N3CCN(C(=O)[C@H]4C[C@@](C)(O)C4)CC3(C)C)nc12 [Compound I-463] |
| > 1000 | 0.6 | > 1000 | 0.6 | – | – | – | – | Cc1nc(C(=O)N2CCN(C(=O)c3cn4nc(-c5ccc(C)c(F)c5)cc(C(C)(C)C)c4n3)C(C)(C)C2)n[nH]1 [Compound I-416] |
| > 1000 | 2.4 | > 1000 | 1.7 | – | – | – | – | Cc1cc(C(=O)N2CCN(C(=O)c3cn4nc(-c5ccc(F)cc5)cc(C(C)(C)F)c4n3)C(C)(C)C2)[nH]n1 [Compound I-420] |
| > 1000 | 60 | > 1000 | 20 | – | – | – | – | CC(C)c1cc(-c2cccc(F)c2)nn2cc(C(=O)N3CCNC(=O)C3(C)C)nc12 [Compound I-480] |
| > 1000 | 4.8 | > 1000 | 3.2 | – | – | – | – | CC(C)c1cc(-c2ccc(Cl)cc2)nn2cc(C(=O)N3CCN(C(=O)[C@H]4C[C@@H](O)C4)CC3(C)C)nc12 [Compound I-543] |
| > 1000 | 2.6 | > 1000 | 3.1 | – | – | – | – | CC(C)(C)c1cc(-c2ccc(C(F)(F)F)cc2)nn2cc(C(=O)N3CCN(C(=O)c4ccccn4)CC3(C)C)nc12 [Compound I-398] |
| > 1000 | 7.4 | > 1000 | 8.3 | – | – | – | – | Cc1nc(C(=O)N2CCN(C(=O)c3cn4nc(-c5ccc(F)c(C)c5)cc(C(C)C)c4n3)C(C)(C)C2)c[nH]1 [Compound I-380] |
| > 1000 | > 1000 | > 1000 | 635 | – | – | – | – | C[C@H]1C(=O)NCCN1C(=O)c1cn2nc(-c3ccc(F)cc3)cc(C(C)(C)C)c2n1 [Compound I-547] |
| > 1000 | 25 | > 1000 | 20 | – | – | – | – | Cc1nc(N2CCN(C(=O)c3cn4nc(-c5ccc(F)c(C)c5)cc(C(C)C)c4n3)C(C)(C)C2=O)c[nH]1 [Compound I-389] |
| > 1000 | 4.1 | > 1000 | 4.7 | – | – | – | – | Cc1ccc(-c2cc(C(C)C)c3nc(C(=O)N4CCNC(=O)C4(C)C)cn3n2)cc1Cl [Compound I-508] |
| > 1000 | 720 | > 1000 | 720 | – | – | – | – | Cc1n[nH]c(C(=O)N2CCN(C(=O)c3cn4nc(-c5ccc(F)cc5)cc(C(C)C)c4n3)CC2)n1 [Compound I-552] |
